# Entries after “also recorded” stand apart in the source; their conditions may differ.
# What was measured:
# mu opioid receptor = target: T1, mu opioid receptor (Mus musculus, UniProt P42866); assay: Mouse vas deferens preparation (MVD), mu receptor (normorphine); format: cell-based; details: in vitro MVD; for Kb: antagonist of normorphine, read-out: ke, μ
# T1 construct: mu agonist normorphine
# Source text: (§1) To obtain some insight into the profiles at opioid receptor subtypes compounds of formula III where R=H, Cl, Br and Me were therefore examined in isolated tissue preparations. Comparative data on the previously disclosed dehydro compounds of formula III is also included. The results obtained in the mouse was deferens preparation (MVD)(Henderson et al Brit J Pharmacol., 46,764, 1972) for these compounds are shown in Table 2. Although the unsubstituted compounds (R=H) were full agonists in this test situation no delta-agonist properties could be detected. […] The corresponding methyl and bromo dihydro compounds were antagonists with the rank order of affinities: mu>delta>kappa.
# (§2) ke = Molar concentration of antagonist at which twice the concentration o
# (§3) the agonist was required to produce the same response as that produced in
# (§4) the absence of the antagonist; μ Agonist = Normorphine (NM); kAgonist
# (§5) Ethylketocyclazocine; dAgonist = DAla-D-Leu Enkephalin.
# opioid receptor subtypes = assay: Mouse vas deferens preparation (MVD), agonist/antagonist profile at opioid receptor subtypes; format: cell-based; details: for rank order of affinities: antagonists
# Source text: as §1, §2, §3, §4, §5
# kappa opioid receptor = assay: Mouse vas deferens preparation (MVD), kappa receptor (ethylketocyclazocine); format: cell-based; details: in vitro MVD; antagonist of ethylketocyclazocine; read-out: ke, k
# Source text: as §1, §2, §3, §4, §5
# delta opioid receptor = target: T2, delta opioid receptor (Mus musculus, UniProt P32300); assay: Mouse vas deferens preparation (MVD), delta receptor (DAla-D-Leu enkephalin); format: cell-based; details: for Kb: antagonist of DAla-D-Leu enkephalin, read-out: ke, d
# T2 construct: delta agonist DAla-D-Leu enkephalin
# Source text: as §1, §2, §3, §4, §5
# kappa and mu receptors = assay: DMPP stimulated guinea pig ileum (GPI) preparation (kappa and mu test); format: cell-based; details: in words
# Source text: *In the guinea pig ileum preparation (GPI), as described on page 268 of […]
# [1] = tested on: drug reinforcing effects in rhesus monkeys; assay: Self-administration study in codeine-trained rhesus monkeys (drug reinforcing effects); format: in vivo, rhesus monkey; details: for response rates maintained compared with codeine: similar conditions, FIGS. 2 and 3
# Procedure: Drug reinforcing effects were evaluated in rhesus monkeys trained to respond for 0.32 mg/kg/iv injection of codeine.
# [2] = tested on: morphine antagonist activity; details: s.c., reported in a response filed during prosecution of the corresponding U.S. application; cited from earlier work
# [3] = tested on: rat tail pressure antinociception; assay: Rat tail pressure (RTP) antinociceptive test; format: in vivo; details: for agonist activity in the RPT test: in words
# Source text: Compounds of formula III were initially examined in two antinociceptive tests (in vivo) to assess their analgesic potential and are shown in the following Table 1. These tests were:
# (2) The rat tail pressure (RTP) which is described by Green and Young, (Br. J. Pharmac Chemother., 6,572, 1951).
# mu receptor = assay: GPI preparation, mu receptor agonism; format: cell-based, guinea pig; details: in words
# delta receptor = target: T3, delta receptor (Mus musculus, UniProt P32300); assay: MVD agonist effects of compound I in absence/presence of RX 8008M or naltrexone; format: cell-based
# T3 construct: agonism of compound I with delta-selective antagonist RX or mu-selective naltrexone
# Source text: ^a Groups (n = 2-6) of MVD used in each treatment schedule.
# ^b IC40 is the concentration of agonist required to reduce the
# maximal contraction to electrical stimulation by 40 percent. The slow
# values in the presence or absence of the antagonists in the same
# kappa receptor = kappa receptor (Cavia porcellus, UniProt P41144); assay: GPI preparation, kappa receptor agonism; format: cell-based, guinea pig; details: in words
# Sequence of kappa receptor (P41144 whole entry): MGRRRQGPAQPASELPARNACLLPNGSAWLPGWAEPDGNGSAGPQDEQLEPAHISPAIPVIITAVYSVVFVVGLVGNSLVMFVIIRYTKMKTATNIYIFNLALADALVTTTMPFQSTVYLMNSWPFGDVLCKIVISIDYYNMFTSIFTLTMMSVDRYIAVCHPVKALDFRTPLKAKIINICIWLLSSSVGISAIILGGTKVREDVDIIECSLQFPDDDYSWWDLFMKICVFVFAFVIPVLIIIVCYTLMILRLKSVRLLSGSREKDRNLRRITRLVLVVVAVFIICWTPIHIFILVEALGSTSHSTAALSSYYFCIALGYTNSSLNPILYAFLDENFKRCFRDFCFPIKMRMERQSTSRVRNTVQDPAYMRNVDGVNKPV
# T3 sequence (P32300 whole entry): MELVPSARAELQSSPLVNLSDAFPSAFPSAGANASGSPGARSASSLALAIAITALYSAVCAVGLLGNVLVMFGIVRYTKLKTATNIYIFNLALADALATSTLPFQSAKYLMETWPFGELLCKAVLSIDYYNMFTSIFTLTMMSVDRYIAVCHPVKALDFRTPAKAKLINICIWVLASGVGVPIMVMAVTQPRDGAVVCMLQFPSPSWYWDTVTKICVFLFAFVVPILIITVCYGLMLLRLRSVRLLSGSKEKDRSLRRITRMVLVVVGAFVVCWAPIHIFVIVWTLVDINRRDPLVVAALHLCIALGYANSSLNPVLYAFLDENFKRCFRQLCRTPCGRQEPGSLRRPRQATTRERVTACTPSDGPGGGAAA
# T2 sequence (P32300 whole entry): as above
# T1 sequence (P42866 whole entry): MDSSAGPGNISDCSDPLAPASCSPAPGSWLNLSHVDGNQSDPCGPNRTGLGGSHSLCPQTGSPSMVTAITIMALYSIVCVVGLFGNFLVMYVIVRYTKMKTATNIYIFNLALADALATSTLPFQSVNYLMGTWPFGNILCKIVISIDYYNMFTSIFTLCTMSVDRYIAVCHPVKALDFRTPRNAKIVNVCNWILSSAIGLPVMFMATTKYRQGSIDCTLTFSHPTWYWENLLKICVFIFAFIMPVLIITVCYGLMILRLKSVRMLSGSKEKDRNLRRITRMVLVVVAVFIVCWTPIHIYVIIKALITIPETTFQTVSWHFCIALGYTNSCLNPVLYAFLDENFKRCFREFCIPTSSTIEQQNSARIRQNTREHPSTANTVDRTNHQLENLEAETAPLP
smiles,measurement,setting,value
COc1ccc2c3c1O[C@H]1C(=O)CC[C@@]4(NC(=O)C=Cc5ccc(Br)cc5)[C@@H](C2)N(CC2CC2)CC[C@]314 [Br dihydro],Kb,mu opioid receptor,0.32 nM
same,rank order of affinities,opioid receptor subtypes; in vitro MVD,mu>delta>kappa
same,MVD activity profile,"opioid receptor subtypes; in vitro MVD, in words",antagonists
same,agonist activity in MVD,opioid receptor subtypes; in words,negligible agonist activity
same,Kb,kappa opioid receptor,27.3 nM
same,Kb,delta opioid receptor; in vitro MVD,8.6 nM
same,GPI dose-response curve / agonist activity,kappa and mu receptors,negligible agonist activity
same,response rates maintained compared with codeine,[1],appropriately equal to the level of responding maintained by codeine
COc1ccc2c3c1O[C@H]1C(=O)C=C[C@@]4(NC(=O)C=Cc5ccccc5)[C@@H](C2)N(CC2CC2)CC[C@]314 [Ex. 15],agonist potency relative to normorphine (× NM),mu opioid receptor,200 × NM
same,MVD activity profile,"opioid receptor subtypes; in vitro MVD, in words",μ and k-Agonist
COc1ccc2c3c1O[C@H]1C(=O)C=C[C@@]4(NC(=O)C=Cc5ccc(Cl)cc5)[C@@H](C2)N(CC2CC2)CC[C@]314 [Ex. 91],EC40,"opioid receptor subtypes; Mus musculus, in vitro MVD, Table 2, read-out: ED40 (μ + k-agonism)",> 300 ng/mL
same,MVD activity profile,"opioid receptor subtypes; in vitro MVD, in words",Weak μ + k-Agonist
same,delta agonism in MVD,"delta opioid receptor; in vitro MVD, in words",No d-agonism detected
COc1ccc2c3c1O[C@H]1C(=O)C=C[C@@]4(NC(=O)C=Cc5ccc(C)cc5)[C@@H](C2)N(CC2CC2)CC[C@]314 [Ex. 92],MVD activity profile,"opioid receptor subtypes; in vitro MVD, in words",Partial μ Agonist
O=CN[C@@]12C=CC(=O)[C@@H]3Oc4c(O)ccc5c4[C@@]31CCN(CC1CC1)[C@@H]2C5 [Example 49],AD50 (RTF test),[2],0.132 mg/kg
same,agonist activity in the RPT test,[3],neither the dehydro compound (Example 49) nor the dihydro compound (Example 108) exhibited agonist activity
O=CN[C@@]12CCC(=O)[C@@H]3Oc4c(O)ccc5c4[C@@]31CCN(CC1CC1)[C@@H]2C5 [Example 108],AD50 (RTF test),[2],0.16 mg/kg
same,agonist activity in the RPT test,[3],neither the dehydro compound (Example 49) nor the dihydro compound (Example 108) exhibited agonist activity
COc1ccc2c3c1O[C@H]1C(=O)CC[C@@]4(NC(=O)C=Cc5ccccc5)[C@@H](C2)N(CC2CC2)CC[C@]314 [H dihydro],agonist potency relative to normorphine (× NM),mu opioid receptor,"72,000 × NM"
same,MVD activity profile,"opioid receptor subtypes; in vitro MVD, in words",μ Agonist
same,delta agonism in MVD,"delta opioid receptor; in vitro MVD, in words",No d-agonism detected
"COc1ccc2c3c1O[C@H]1C(=O)CC[C@@]4(NC(=O)C=Cc5ccc(Cl)cc5)[C@@H](C2)N(CC2CC2)CC[C@]314 [I, 14-β-p-chlorocinnamoylamino-7,8-dihydro-N-cyclopropylmethyl-norcodeinone]",mu agonist activity in GPI,mu receptor; DMPP stimulated GPI,low intrinsic activity mu agonist
same,"intrinsic activity at mu receptors, in vitro summary",mu receptor,low intrinsic acitivity at mu receptors
same,IC40,delta receptor,0.098 ng/mL
same,IC40 in presence of RX 8008M,"delta receptor; MVD, + RX 8008M (10 ng/ml)",9.15 + 3.4 ng/ml
same,IC40 in presence of naltrexone,"delta receptor; MVD, + naltrexone (100 ng/ml)",1.44 + 0.01 ng/ml
same,EC40,"delta opioid receptor; in vitro MVD, Table 2, read-out: ED40 (d-agonism)",3.1 ng/mL
same,delta agonism in MVD,"delta opioid receptor; in vitro MVD, in words",delta-agonist activity; also recorded: d-Agonist
same,"intrinsic activity at delta-receptors, in vitro summary",delta opioid receptor; in words,substantial level of intrinsic activity at delta-receptors
same,GPI dose-response curve / agonist activity,kappa and mu receptors,very shallow dose-response curve
same,antagonism of GPI response by RX 8008M,kappa and mu receptors; RX 8008M (25 nM),atagonised by RX 8008M (25 nM)
same,response rates maintained compared with saline,"[1]; 0.0003-0.01 mg/kg, i.v., substituted for codeine, single 130 minute sessions, FIG. 1",identical to those maintained by saline
COc1ccc2c3c1O[C@H]1C(=O)CC[C@@]4(NC(=O)C=Cc5ccc(C)cc5)[C@@H](C2)N(CC2CC2)CC[C@]314 [Me dihydro],Kb,mu opioid receptor,0.28 nM
same,rank order of affinities,opioid receptor subtypes; in vitro MVD,mu>delta>kappa
same,MVD activity profile,"opioid receptor subtypes; in vitro MVD, in words",antagonists
same,Kb,kappa opioid receptor,66.3 nM
same,Kb,delta opioid receptor; in vitro MVD,19.3 nM
same,kappa agonist activity in GPI,kappa receptor,predominantly kappa partial agonist activity
same,response rates maintained compared with codeine,[1],appropriately equal to the level of responding maintained by codeine
COc1ccc(C=CC(=O)N[C@@]23CCC(=O)[C@@H]4Oc5c(OC)ccc6c5[C@@]42CCN(CC2CC2)[C@@H]3C6)cc1 [OMe dihydro],"RTP, percent effect","[3]; at 1 mg/kg, Table 1",40%
